Experiment [1] concerns Burkholderia cepacia ORB-99. The experiment is classed as cell-based. Particulars: Burkholderia cepacia ORB-99; CF clinical isolate, wild type. How it is done:
(§1) M33, […], M35 and M36 MICs were determined against strains of several bacterial species, including Gram-negative pathogens and also Staphylococcus aureus (Table 1). MICs in the micromolar range were observed against several Gram-negatives including Pseudomonas aeruginosa, Acinetobacter baumannii and most Enterobacteriaceae, with the exception of Proteus mirabilis, Serratia marcescens and Burkholderia cepacia. Activity of peptides was retained against MDR strains with various resistance mechanisms (such as extended-spectrum beta-lactamases and carbapenemases), including MDR P. aeruginosa strains from CF patients. Antimicrobial profile of M33, […] and potency were overall similar to those of polymyxin B, although M33, M34, M35 and M36 also appeared to have some activity against S. aureus (Table 1).

Experiment [2] deals with Escherichia coli ATCC 25922. The format is cell-based. Particulars: Escherichia coli ATCC 25922; reference strain, wild type. How it is done: as §1
The test system of experiment [3] is Staphylococcus aureus ATCC 29213. The experiment is classed as cell-based. The following applies: Staphylococcus aureus ATCC 29213; reference strain, PENr. Here is the method:
as §1

For experiment [4], the system named is Enterobacter cloacae W03AN0041. The experiment is classed as cell-based. Particulars: Enterobacter cloacae W03AN0041; ESCr (ESBL/SHV-12). How it is done: as §1
Experiment [5] deals with Pseudomonas aeruginosa ATCC 27853. The format is cell-based. The following applies: Pseudomonas aeruginosa ATCC 27853; reference strain, wild type. Here is the method:
as §1

Experiment [6] deals with Proteus mirabilis W03VA1017. The experiment is classed as cell-based. The following applies: Proteus mirabilis W03VA1017; FQr ESCr (AmpC/CMY-16). Here is the method: as §1
Experiment [7] relates to Acinetobacter baumannii RUH 134. The format is cell-based. Particulars: Acinetobacter baumannii RUH 134; reference strain, European clone II. How it is done:
as §1

Experiment [8] concerns Enterobacer aerogenes W03BG0067. The experiment is classed as cell-based. Particulars: Enterobacer aerogenes W03BG0067; AGr ESCr (ESBL/SHV-5). Here is the method: as §1
The subject of experiment [9] is Serratia marcescens W03BG0003. The experiment is classed as cell-based. The following applies: Serratia marcescens W03BG0003; FQr AGr ESCr (ESBL/SHV-12). How it is done: as §1
Experiment [10] concerns Klebsiella pneumoniae ATCC 13833. The format is cell-based. The following applies: Klebsiella pneumoniae ATCC 13833; reference strain, wild type. Here is the method: as §1
Another experiment deals with E. coli W03BG0025. The experiment is classed as cell-based, Escherichia coli. The following applies: E. coli W03BG0025; FQr AGr ESCr (ESBL/CTX-M-15). How it is done: as §1
The test system of experiment [11] is P. aeruginosa SC-CNm03-07. The format is cell-based, Pseudomonas aeruginosa. The following applies: P. aeruginosa SC-CNm03-07; CF clinical isolate, mucoid, FQr AGr ESCr NEMr. Here is the method: as §1
For experiment [12], the system named is P. aeruginosa SC-BGr12-02. The experiment is classed as cell-based, Pseudomonas aeruginosa. The following applies: P. aeruginosa SC-BGr12-02; CF clinical isolate, FQr AGr ESCr NEMr. How it is done:
as §1

The test system of experiment [13] is P. aeruginosa SC-MDm03-02. The format is cell-based, Pseudomonas aeruginosa. Particulars: P. aeruginosa SC-MDm03-02; CF clinical isolate, mucoid, FQr AGr ESCr NEMr. Here is the method: as §1
The subject of experiment [14] is P. aeruginosa SC-GMm03-05. The format is cell-based, Pseudomonas aeruginosa. Particulars: P. aeruginosa SC-GMm03-05; CF clinical isolate, mucoid, FQr AGr ESCr NEMr. How it is done:
as §1

Experiment [15] deals with P. aeruginosa SC-MDr03-06. The experiment is classed as cell-based, Pseudomonas aeruginosa. The following applies: P. aeruginosa SC-MDr03-06; CF clinical isolate, FQr AGr ESCr NEMr. Here is the method: as §1
Another experiment concerns P. aeruginosa VR-143/97. The format is cell-based, Pseudomonas aeruginosa. The following applies: P. aeruginosa VR-143/97; FQr AGr ESCr NEMr (MBL/VIM-1). How it is done:
as §1

The test system of the next experiment is P. aeruginosa AV65. The experiment is classed as cell-based, Pseudomonas aeruginosa. Particulars: P. aeruginosa AV65; FQr AGr ESCr NEMr (MBL/IMP-13). How it is done:
as §1

In experiment [16] the test system is P. aeruginosa SC-VMr04-05. The format is cell-based, Pseudomonas aeruginosa. Particulars: P. aeruginosa SC-VMr04-05; CF clinical isolate, FQr AGr ESCr NEMr. How it is done: as §1
For experiment [17], the system named is P. aeruginosa SC-DMr05-04. The experiment is classed as cell-based, Pseudomonas aeruginosa. The following applies: P. aeruginosa SC-DMr05-04; CF clinical isolate, FQr AGr ESCr NEMr. Here is the method: as §1
Another experiment has as its system P. aeruginosa EF-OBG6-1. The format is cell-based, Pseudomonas aeruginosa. Particulars: P. aeruginosa EF-OBG6-1; CF clinical isolate, FQr AGr ESCr NEMr (MBL/IMP-13). How it is done: as §1
In the next experiment the test system is P. aeruginosa PAO-1. The experiment is classed as cell-based, Pseudomonas aeruginosa. Particulars: P. aeruginosa PAO-1; reference strain, wild type. Here is the method:
as §1

The next experiment deals with S. aureus 3851. The format is cell-based, Staphylococcus aureus. Particulars: S. aureus 3851; MR VANi. How it is done: as §1
A further experiment deals with A. baumannii MR157. The experiment is classed as cell-based, Acinetobacter baumannii. Particulars: A. baumannii MR157; FQr AGr ESCr NEMr (OXA/OXA-58). Here is the method:
as §1

The next experiment deals with A. baumannii RUH 875. The format is cell-based, Acinetobacter baumannii. The following applies: A. baumannii RUH 875; reference strain, European clone I. Here is the method: as §1
The test system of the next experiment is K pneumoniae 7086042. The format is cell-based, Klebsiella pneumoniae. The following applies: K pneumoniae 7086042; FQr AGr ESCr NEMr (MBL/VIM-1). How it is done:
as §1

For the next experiment, the system named is K pneumoniae C8-27. The format is cell-based, Klebsiella pneumoniae. Particulars: K pneumoniae C8-27; FQr AGr ESCr ETPr (ESBL/CTX-M-15). Here is the method: as §1
Another experiment deals with K pneumoniae FIPP-1. The format is cell-based, Klebsiella pneumoniae. The following applies: K pneumoniae FIPP-1; FQr AGr ESCr NEMr (MBL/KPC-3). How it is done:
as §1

In another experiment the test system is E. coli TG1. Description: Antibacterial activity against E. coli TG1 cells (CFU count after 75 min incubation, FIG. 1A). The format is cell-based. Particulars: 75 minutes at 37° C., CFU counted. An excerpt:
FIG. 1. A, Antibacterial activity against E. coli TG1 cells. Comparison of the following tetra-branched peptides: M6 batch 1 synthesis (triangles), M6 batch 2 synthesis (squares), M6 batch 3 synthesis (white circles), which contain a mixture of Gln and pyroGlu (in unknown percentages) as first amino-acid, […] (asterisks), where the first amino-acid is 100% pyroGlu, and M33 (black circles), in which the first Gln was deleted. […] SD derived by means of three different experiments. Many different syntheses of M33 (and also of M34, M35 and M36, here not shown) gave perfectly overlapping results without any wavering outcome. B, Mass spectrometry analysis of tetra-branched peptide M6 crude mixture. Calculated molecular mass of M6 was 5195 Da. Two main peaks are present, one at 5197 Da corresponding to unmodified M6 and one at 5179 Da that corresponds to the secondary product with one pyroGlu in first position in the place of one of the four Gln. C, Mass spectrometry analysis of tetrabranched peptide M33 after 24 hours of incubation in serum. The peptide appears as a single peak at the expected molecular mass (4683 Da).
A single colony of E. coli TG1 strain was cultured in 2×TY medium to 0.2 OD^600. […] The following day colonies (CFU/ml) grown on plates were counted.

Where no end group is shown, it is not given here.

As usually defined, the MIC is the smallest concentration in the dilution series that meets the test's criterion for growth inhibition. Read a low MIC as inhibition by little substance.

On to Polymyxin B [reference compound], for which the MIC was more than 96 µM in experiment [1]; 0.7 µM in experiment [2]; 96 µM in experiment [3]; 0.7 µM in [4]; 1.5 µM in [5]; more than 96 µM in experiment [6]. In addition, the MIC was 1.5 µM in [7]; 0.7 µM in experiment [8]; more than 96 µM in [9]; 0.7 µM in experiment [10]; 0.7 µM in the experiment on E. coli W03BG0025; 0.7 µM in [11]. The MIC (in experiment [12]; in experiment [13]; in [14]; in experiment [15]; in the experiment on P. aeruginosa VR-143/97; in the experiment on P. aeruginosa AV65) was 1.5 µM each time. Besides, the MIC is 1.5 µM in experiment [16]; 1.5 µM in experiment [17]; 0.7 µM against P. aeruginosa EF-OBG6-1; 1.5 µM in the experiment with P. aeruginosa PAO-1; 96 µM in the experiment with S. aureus 3851; 1.5 µM against A. baumannii MR157. The MIC against A. baumannii RUH 875 stood at 1.5 µM; against K pneumoniae 7086042, 1.5 µM; against K pneumoniae C8-27, 0.7 µM; with K pneumoniae FIPP-1, 1.5 µM.

On to “QKKIRVRLSA (also: tetra-branched MAP) [M6, previously reported tetra-branched MAP peptide with Gln as first amino-terminal residue, reference compound]”, for which the “Antibacterial activity against E. coli TG1 cells (comparison of tetra-branched peptides, FIG. 1A)” value in the experiment on E. coli TG1 is given as “intermediate antimicrobial activities”.

(Values after patent US8440794B2, “Peptide sequences, their branched form and use thereof for antimicrobial applications” (Universita' Degli Studi di Siena, priority 2008, dated 2013).)
